Measured values published in publication PMC3961306, “Comparison of the Cancer Gene Targeting and Biochemical Selectivities of All Targeted Kinase Inhibitors Approved for Clinical Use” (PLoS ONE, 2014).

How the values were obtained:
Assay in all cases: Kinase profiling in a biochemical assay panel (mobility shift assays and ELISA), %-inhibition at 1 μM; selectivity entropy
[1] = target: T1, panel of more than 300 wild-type and mutant kinases (313 kinase panel) (Homo sapiens, UniProt Q9H093)
T1 sequence (Q9H093 1-628): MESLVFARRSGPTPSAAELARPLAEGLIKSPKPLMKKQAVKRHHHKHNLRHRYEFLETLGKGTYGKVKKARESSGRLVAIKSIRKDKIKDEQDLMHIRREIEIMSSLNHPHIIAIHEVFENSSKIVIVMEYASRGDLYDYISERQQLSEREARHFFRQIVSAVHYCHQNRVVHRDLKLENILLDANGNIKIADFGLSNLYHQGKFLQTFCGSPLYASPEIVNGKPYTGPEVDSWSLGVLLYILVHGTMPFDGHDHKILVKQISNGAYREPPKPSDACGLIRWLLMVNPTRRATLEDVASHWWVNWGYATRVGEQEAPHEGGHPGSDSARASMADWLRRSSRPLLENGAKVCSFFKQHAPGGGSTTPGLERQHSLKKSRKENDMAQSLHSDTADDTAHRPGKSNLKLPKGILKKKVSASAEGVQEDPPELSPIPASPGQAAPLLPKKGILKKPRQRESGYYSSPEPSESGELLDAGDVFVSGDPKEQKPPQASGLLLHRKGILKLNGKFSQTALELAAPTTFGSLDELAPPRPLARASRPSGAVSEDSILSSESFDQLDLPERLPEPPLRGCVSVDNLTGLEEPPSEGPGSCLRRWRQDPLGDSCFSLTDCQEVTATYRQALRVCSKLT

[2] = target: panel of more than 300 wild-type and mutant kinases (313 kinase panel) (Homo sapiens, UniProt Q9UM73)
[3] = target: panel of more than 300 wild-type and mutant kinases (313 kinase panel) (Homo sapiens, UniProt P07949, G691S)
[4] = target: panel of more than 300 wild-type and mutant kinases (313 kinase panel) (Homo sapiens, UniProt Q9HBH9)
[5] = target: T2, panel of more than 300 wild-type and mutant kinases (313 kinase panel) (Homo sapiens, UniProt P52333)
T2 sequence (P52333 1-1124): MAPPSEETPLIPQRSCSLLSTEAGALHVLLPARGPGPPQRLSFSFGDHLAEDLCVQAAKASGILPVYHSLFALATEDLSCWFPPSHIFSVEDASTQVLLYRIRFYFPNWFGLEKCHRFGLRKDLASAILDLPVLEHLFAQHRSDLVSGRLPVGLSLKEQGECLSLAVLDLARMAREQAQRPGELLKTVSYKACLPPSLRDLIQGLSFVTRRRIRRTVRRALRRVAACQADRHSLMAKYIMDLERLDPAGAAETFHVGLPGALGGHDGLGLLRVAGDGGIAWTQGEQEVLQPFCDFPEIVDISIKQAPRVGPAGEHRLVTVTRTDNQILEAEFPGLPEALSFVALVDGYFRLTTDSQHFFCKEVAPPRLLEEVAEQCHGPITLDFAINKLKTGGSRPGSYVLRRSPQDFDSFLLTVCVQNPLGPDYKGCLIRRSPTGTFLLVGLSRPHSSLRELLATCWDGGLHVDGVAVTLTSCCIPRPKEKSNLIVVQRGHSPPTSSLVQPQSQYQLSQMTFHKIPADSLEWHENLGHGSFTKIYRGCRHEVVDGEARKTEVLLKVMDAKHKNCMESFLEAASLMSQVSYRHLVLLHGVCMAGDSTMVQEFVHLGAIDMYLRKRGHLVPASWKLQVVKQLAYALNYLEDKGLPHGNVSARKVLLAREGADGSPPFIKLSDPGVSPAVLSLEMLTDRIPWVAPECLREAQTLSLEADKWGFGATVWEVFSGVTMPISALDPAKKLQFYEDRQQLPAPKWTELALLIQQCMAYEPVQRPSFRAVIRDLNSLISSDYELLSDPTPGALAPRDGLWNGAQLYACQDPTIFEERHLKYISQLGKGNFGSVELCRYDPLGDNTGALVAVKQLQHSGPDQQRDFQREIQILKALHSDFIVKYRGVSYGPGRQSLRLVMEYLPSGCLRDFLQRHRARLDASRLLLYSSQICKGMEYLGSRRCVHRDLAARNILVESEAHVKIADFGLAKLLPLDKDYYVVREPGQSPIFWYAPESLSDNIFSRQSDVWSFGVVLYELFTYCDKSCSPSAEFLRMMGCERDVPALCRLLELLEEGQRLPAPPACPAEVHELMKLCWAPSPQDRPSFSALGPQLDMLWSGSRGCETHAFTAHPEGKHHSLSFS

[6] = target: T3, panel of more than 300 wild-type and mutant kinases (313 kinase panel) (Homo sapiens, UniProt Q92630)
T3 sequence (Q92630 1-601): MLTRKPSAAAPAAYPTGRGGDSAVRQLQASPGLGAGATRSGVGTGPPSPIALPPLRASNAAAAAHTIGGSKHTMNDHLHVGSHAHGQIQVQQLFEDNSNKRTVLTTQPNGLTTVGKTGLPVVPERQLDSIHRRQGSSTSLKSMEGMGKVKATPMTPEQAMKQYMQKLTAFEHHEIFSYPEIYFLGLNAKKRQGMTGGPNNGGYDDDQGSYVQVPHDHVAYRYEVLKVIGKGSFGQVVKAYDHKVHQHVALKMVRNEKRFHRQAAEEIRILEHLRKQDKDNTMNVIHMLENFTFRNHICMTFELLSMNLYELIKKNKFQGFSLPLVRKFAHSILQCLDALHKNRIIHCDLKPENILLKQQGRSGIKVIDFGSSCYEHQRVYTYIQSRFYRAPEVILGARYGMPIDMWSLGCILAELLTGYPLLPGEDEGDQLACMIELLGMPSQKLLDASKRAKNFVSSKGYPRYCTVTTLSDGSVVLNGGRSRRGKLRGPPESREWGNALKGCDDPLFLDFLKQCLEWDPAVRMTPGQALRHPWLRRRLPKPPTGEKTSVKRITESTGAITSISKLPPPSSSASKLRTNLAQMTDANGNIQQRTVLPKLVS

Row | Compound | %-inhibition of NuaK2 ([1]; kinase NuaK2, 1 μM) [%] | %-inhibition, ALK ([2]; kinase ALK, 1 μM compound) [%] | %-inhibition of RET(G691S) ([3]; kinase RET(G691S), 1 μM) [%] | %-inhibition of MNK2 ([4]; kinase MNK2, 1 μM) [%] | %-inhibition of JAK3 ([5]; kinase JAK3, compound at 1 μM) [%] | %-inhibition of DYRK2 ([6]; kinase DYRK2, compound at 1 μM) [%] | %-inhibition of NuaK2 ([1]; 1 µM) [%] | %-inhibition of DYRK2 ([6]; 1 µM) [%] | %-inhibition, ALK ([2]; 1 µM) [%] | %-inhibition of RET(G691S) ([3]; 1 µM) [%] | %-inhibition of MNK2 ([4]; 1 µM) [%] | %-inhibition of JAK3 ([5]; 1 µM) [%]
1 | COc1cc(Nc2c(C#N)cnc3cc(OCCCN4CCN(C)CC4)c(OC)cc23)c(Cl)cc1Cl [bosutinib] | 87 | 71 | 94 | -2 | 67 | – | – | – | – | – | – | –
2 | COc1cc2nccc(Oc3ccc(NC(=O)C4(C(=O)Nc5ccc(F)cc5)CC4)cc3)c2cc1OC [cabozantinib] | 1.63 | 49 | – | 97 | 2.34 | 17 | – | – | – | – | – | –
3 | C[C@@H](Oc1cc(-c2cnn(C3CCNCC3)c2)cnc1N)c1c(Cl)ccc(F)c1Cl [crizotinib] | 87 | – | – | 2 | 77 | 10 | – | – | – | – | – | –
4 | CC(C)(C)c1nc(-c2cccc(NS(=O)(=O)c3c(F)cccc3F)c2F)c(-c2ccnc(N)n2)s1 [dabrafenib] | 4.53 | – | 53 | – | 22 | 6 | – | – | – | – | – | –
5 | Cc1nc(Nc2ncc(C(=O)Nc3c(C)cccc3Cl)s2)cc(N2CCN(CCO)CC2)n1 [dasatinib] | 3 | – | – | – | – | 12 | – | – | – | – | – | –
6 | C#Cc1cccc(Nc2ncnc3cc(OCCOC)c(OCCOC)cc23)c1 [erlotinib] | – | – | – | – | – | – | -0.531 | 45 | 35 | 73 | 35 | 55
7 | CO[C@H]1C[C@@H]2CC[C@@H](C)[C@@](O)(O2)C(=O)C(=O)N2CCCC[C@H]2C(=O)O[C@H]([C@H](C)C[C@@H]2CC[C@@H](OCCO)[C@H](OC)C2)CC(=O)[C@H](C)/C=C(\C)[C@@H](O)[C@@H](OC)C(=O)[C@H](C)C[C@H](C)/C=C/C=C/C=C/1C [everolimus] | -0.726 | 1.68 | -4.43 | 1.88 | -4.43 | -10 | – | – | – | – | – | –
8 | O=S(=O)(c1cccc2cnccc12)N1CCCNCC1 [fasudil] | 20 | -4.38 | -0.0546 | 12 | 4.46 | -1.3 | – | – | – | – | – | –
9 | CS(=O)(=O)CCNCc1ccc(-c2ccc3ncnc(Nc4ccc(OCc5cccc(F)c5)c(Cl)c4)c3c2)o1 [lapatinib] | -1.19 | 1.72 | – | 2.43 | -6 | – | – | 10 | – | -3 | – | –
10 | Cc1cn(-c2cc(NC(=O)c3ccc(C)c(Nc4nccc(-c5cccnc5)n4)c3)cc(C(F)(F)F)c2)cn1 [nilotinib] | – | -8 | – | 2 | 2.15 | 28 | -44 | – | – | 13 | – | –
11 | Cc1ccc(Nc2nccc(N(C)c3ccc4c(C)n(C)nc4c3)n2)cc1S(N)(=O)=O [pazopanib] | 2.81 | 48 | – | 2.27 | 38 | -1 | – | – | – | – | – | –
12 | Cc1ccc(C(=O)Nc2ccc(CN3CCN(C)CC3)c(C(F)(F)F)c2)cc1C#Cc1cnc2cccnn12 [ponatinib] | -13 | 9 | 102 | 97 | 98 | – | – | – | – | – | – | –
13 | CNC(=O)c1cc(Oc2ccc(NC(=O)Nc3ccc(Cl)c(C(F)(F)F)c3)c(F)c2)ccn1 [regorafenib] | -24 | -3.43 | 103 | 73 | 31 | 2 | – | – | – | – | – | –
14 | N#CC[C@H](C1CCCC1)n1cc(-c2ncnc3[nH]ccc23)cn1 [ruxolitinib] | 41 | – | – | 54 | – | -10 | – | – | 69 | – | – | –
15 | CO[C@H]1C[C@@H]2CC[C@@H](C)[C@@](O)(O2)C(=O)C(=O)N2CCCC[C@H]2C(=O)O[C@H]([C@H](C)C[C@@H]2CC[C@@H](OC(=O)C(C)(CO)CO)[C@H](OC)C2)CC(=O)[C@H](C)/C=C(\C)[C@@H](O)[C@@H](OC)C(=O)[C@H](C)C[C@H](C)/C=C/C=C/C=C/1C [temsirolimus] | -5.44 | -2 | -6 | -14 | -2 | -3.63 | – | – | – | – | – | –
16 | CC(=O)Nc1cccc(-n2c(=O)n(C3CC3)c(=O)c3c(Nc4ccc(I)cc4F)n(C)c(=O)c(C)c32)c1 [trametinib] | 9 | -2.82 | -1.48 | -11 | 6 | -0.0865 | – | – | – | – | – | –
17 | COc1cc2c(Nc3ccc(Br)cc3F)ncnc2cc1OCC1CCN(C)CC1 [vandetanib] | -14 | – | – | – | 2.34 | -9 | – | – | – | – | – | –
18 | CCCS(=O)(=O)Nc1ccc(F)c(C(=O)c2c[nH]c3ncc(-c4ccc(Cl)cc4)cc23)c1F [vemurafenib] | 4.36 | 1.14 | 23 | 27 | 10 | 1 | – | – | – | – | – | –
